{
  "source": "paper PMC3968170",
  "about": "(PLoS Pathogens, 2014)",
  "key": {"HitS ICD": {"target": "T1, HitS ICD (Bacillus anthracis, UniProt Q81RT2)", "T1 construct": "gene GBAA_1956", "T1 sequence (Q81RT2 74-351 limits assumed)": "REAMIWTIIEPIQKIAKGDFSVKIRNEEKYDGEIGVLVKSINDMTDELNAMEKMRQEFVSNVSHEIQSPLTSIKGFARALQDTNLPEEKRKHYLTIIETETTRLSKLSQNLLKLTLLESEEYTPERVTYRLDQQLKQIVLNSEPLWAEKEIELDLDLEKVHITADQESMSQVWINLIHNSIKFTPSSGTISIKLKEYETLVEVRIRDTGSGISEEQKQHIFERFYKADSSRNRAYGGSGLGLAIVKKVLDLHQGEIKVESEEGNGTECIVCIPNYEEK", "conditions": "5 uM kinase, 37 C, 30 min; labelled compound"}, "HssS ICD": {"target": "T2, HssS ICD (Bacillus anthracis, UniProt A0AAC8N8V0)", "T2 construct": "gene BA_3260", "T2 sequence (A0AAC8N8V0 189-458 limits assumed)": "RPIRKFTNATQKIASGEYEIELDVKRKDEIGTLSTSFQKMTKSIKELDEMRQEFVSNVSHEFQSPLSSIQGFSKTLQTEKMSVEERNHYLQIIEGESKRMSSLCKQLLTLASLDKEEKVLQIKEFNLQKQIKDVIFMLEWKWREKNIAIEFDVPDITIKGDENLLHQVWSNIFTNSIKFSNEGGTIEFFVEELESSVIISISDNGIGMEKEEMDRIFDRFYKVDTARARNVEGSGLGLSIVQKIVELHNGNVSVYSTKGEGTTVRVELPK", "conditions": "5 uM kinase, 37 C, 30 min; labelled compound"}},
  "data": [
    {"smiles": "Nc1ncnc2c1ncn2[C@@H]1O[C@H](COP(=O)(O)OP(=O)(O)OP(=O)(O)O)[C@@H](O)[C@H]1O", "note": "[ATP]", "values": [
      {"measurement": "autophosphorylation, SDS-PAGE and phosphorimager", "setting": "HitS ICD", "result": "Both HKs autophosphorylate in the presence of ATP"},
      {"measurement": "autophosphorylation, SDS-PAGE and phosphorimager", "setting": "HssS ICD", "result": "Both HKs autophosphorylate in the presence of ATP"}
    ]}
  ]
}
